Experimental data: BigSolDB 2.1

CCn1c2ccccc2c2cc(-n3nncc3-c3ccccc3)ccc21
Conditions | solubility (mole fraction)
in acetonitrile, 281.7 K | 0.00188
in acetonitrile, 287.8 K | 0.00249
in acetonitrile, 295.4 K | 0.00335
in acetonitrile, 304.8 K | 0.00485
in acetonitrile, 312.3 K | 0.0066
in acetonitrile, 319.4 K | 0.00933
in acetonitrile, 325 K | 0.0125
in ethanol, 279.2 K | 0.000406
in ethanol, 281.5 K | 0.000428
in ethanol, 285.8 K | 0.000529
in ethanol, 288.8 K | 0.000598
in ethanol, 291.9 K | 0.000685
in ethanol, 297.2 K | 0.000847
in ethanol, 307.8 K | 0.00136
in ethanol, 313 K | 0.0017
in ethanol, 318.9 K | 0.00222
in ethanol, 323.2 K | 0.00274
in ethanol, 329 K | 0.00376
in ethyl acetate, 278.9 K | 0.00403
in ethyl acetate, 282.5 K | 0.00438
in ethyl acetate, 288.6 K | 0.00531
in ethyl acetate, 293.8 K | 0.0062
in ethyl acetate, 296.6 K | 0.00681
in ethyl acetate, 301.9 K | 0.00793
in ethyl acetate, 306.3 K | 0.00903
in ethyl acetate, 310.5 K | 0.0103
in ethyl acetate, 318 K | 0.0129
in ethyl acetate, 322.8 K | 0.0154
in ethyl acetate, 326.9 K | 0.0182
in isopropanol, 279.4 K | 0.000218
in isopropanol, 290.4 K | 0.000352
in isopropanol, 294.2 K | 0.000467
in isopropanol, 298.4 K | 0.000571
in isopropanol, 300.9 K | 0.000684
in isopropanol, 304.6 K | 0.000794
in isopropanol, 307.7 K | 0.000913
in isopropanol, 311 K | 0.00113
in isopropanol, 319.5 K | 0.00181
in isopropanol, 324.1 K | 0.00226
in isopropanol, 330.2 K | 0.00329
in methanol, 279.3 K | 0.000409
in methanol, 281.9 K | 0.000468
in methanol, 288.2 K | 0.000591
in methanol, 300.7 K | 0.000949
in methanol, 306.1 K | 0.00116
in methanol, 314.8 K | 0.00165
in methanol, 320.7 K | 0.00222
in methanol, 325 K | 0.00279
in n-butanol, 280.1 K | 0.000585
in n-butanol, 283.7 K | 0.000684
in n-butanol, 288.6 K | 0.000848
in n-butanol, 292.7 K | 0.00111
in n-butanol, 298.2 K | 0.00138
in n-butanol, 307.4 K | 0.00221
in n-butanol, 312.6 K | 0.00276
in n-butanol, 320.4 K | 0.00401
in n-butanol, 331.5 K | 0.00688
in n-propanol, 283 K | 0.000556
in n-propanol, 285.1 K | 0.00067
in n-propanol, 288.8 K | 0.000774
in n-propanol, 297.1 K | 0.00111
in n-propanol, 307 K | 0.00177
in n-propanol, 312.2 K | 0.00223
in n-propanol, 319.4 K | 0.00314
in n-propanol, 325.2 K | 0.00418
in n-propanol, 330.2 K | 0.00554
in sec-butanol, 279.9 K | 0.000287
in sec-butanol, 283.2 K | 0.000366
in sec-butanol, 291.7 K | 0.000592
in sec-butanol, 294.6 K | 0.00073
in sec-butanol, 298.4 K | 0.000892
in sec-butanol, 306.7 K | 0.00149
in sec-butanol, 315.7 K | 0.0024
in sec-butanol, 319.1 K | 0.00295
in sec-butanol, 321.3 K | 0.0034
in sec-butanol, 329.5 K | 0.0053
